# Values of other authors, collected in patent US20020146694A1, “Functionating genomes with cross-species coregulation” (priority 2001, published 2002).
# System: wild type yeast cells
# Conditions: 10 micrograms/ml
smiles,measurement,value
C[C@H]1c2cccc(O)c2C(=O)C2=C(O)[C@]3(O)C(=O)C(C(N)=O)=C(O)[C@@H](N(C)C)[C@@H]3[C@@H](O)[C@@H]21 [doxycycline],effect on the growth rate,no significant effect
